Test [1] addresses T1, PS:C4BP complex (Homo sapiens, UniProt P04003+P20851).
T1 construct: Purified human C4BP was obtained from 5 liters (l) of human citrated plasma; from tissue; host or cells: human citrated plasma (C4BP); protein S by the method of Schwarz et al
T1 sequence (P04003 49-597): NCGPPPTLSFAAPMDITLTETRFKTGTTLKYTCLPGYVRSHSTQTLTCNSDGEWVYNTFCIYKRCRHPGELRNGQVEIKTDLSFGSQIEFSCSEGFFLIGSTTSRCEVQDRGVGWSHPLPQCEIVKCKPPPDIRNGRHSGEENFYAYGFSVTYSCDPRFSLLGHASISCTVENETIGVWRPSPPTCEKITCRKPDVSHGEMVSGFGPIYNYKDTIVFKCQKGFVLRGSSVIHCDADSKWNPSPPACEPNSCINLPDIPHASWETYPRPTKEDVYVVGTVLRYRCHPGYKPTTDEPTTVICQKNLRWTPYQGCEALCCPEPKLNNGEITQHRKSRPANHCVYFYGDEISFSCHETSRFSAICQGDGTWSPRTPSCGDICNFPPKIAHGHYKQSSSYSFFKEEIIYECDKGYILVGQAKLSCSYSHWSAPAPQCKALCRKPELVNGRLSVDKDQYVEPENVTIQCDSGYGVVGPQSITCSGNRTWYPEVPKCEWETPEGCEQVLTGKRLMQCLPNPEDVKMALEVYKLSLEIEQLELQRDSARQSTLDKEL
T1 sequence (P20851 18-252): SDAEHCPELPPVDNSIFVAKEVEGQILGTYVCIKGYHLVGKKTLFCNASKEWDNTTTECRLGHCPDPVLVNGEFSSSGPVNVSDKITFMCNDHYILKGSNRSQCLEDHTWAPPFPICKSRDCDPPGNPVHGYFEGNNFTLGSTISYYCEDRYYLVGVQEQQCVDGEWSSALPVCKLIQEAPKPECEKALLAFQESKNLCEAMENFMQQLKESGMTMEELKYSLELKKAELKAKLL
The test is described as follows: Peptide Inhibition Assay: b-PS binding to C4BP in solid-phase. As to the method:
Each of the peptides produced as described in Example 1 and listed in Table 1 was analyzed for its ability to inhibit the binding of native protein S in liquid-phase to C4BP in solid-phase.
Microtiter wells of a 96 well plate were coated with 50 μl of 10 μg/ml purified C4BP in carbonate buffer (0.02M Na2 CO3, pH 9.0, 0.02% Na-Azide). After blocking with 10% BSA in TBS, 50 μl of different concentrations of peptides diluted in washing buffer (TBS, 0.2% BSA, 5mM CaCl, 0.02% Tween 20) were separately admixed to C4BP-coated wells. After 2 hours at room temperature, 50 μl of a solution of biotinylated protein S, were admixed to each well to form a second binding admixture having a final concentration of 2 μg/ml. The plate was agitated and the samples Were incubated 1 hour at room temperature. The samples were discarded and the wells were washed 3 times with washing buffer. […] The resulting optical densities of the reaction solutions were read as described before in Example 2C. […]
where I is expressed as a percent; and where 100%=delta/min of the amount of b-PS which specifically bound to C4BP-coated wells in the absence of any competing PS-peptide; and where deltaT =the change in absorbance (405 nm) in the presence of competing PS-peptide; and where deltaC =the change in absorbance (405 nm) in the absence of competing PS-peptide.

Test [2] concerns the target T1, PS:C4BP complex. The test is described as follows: Fluid-phase peptide inhibition of b-PS binding to C4BP, detected on anti-C4BP polyclonal antibody-coated plates. How it is done:
(§1) An alternative approach was used to test the ability of the peptides, PSP-loop, PSP-424K and PSP-428K, in comparison with that seen with the PSP-12 peptide, in inhibiting the binding of PS to C4BP, the result of which was detected on polyclonal antibody-coated plates. For this assay, C4BP, biotinylated-PS (b-PS) and PSP peptides were admixed together at the respective concentrations of 3 μg/ml, 0.6 μg/ml and at a range of 0-500 μM (V:V:V). The admixtures were maintained for 2 hours at room temperature on a fluid phase plate to allow the binding and/or inhibition thereof of PS to C4BP by the PS-derived peptides. After the maintenance period, 50 μl of the admixture were separately admixed to wells previously coated with 10 μg/ml of anti-C4BP IgG polyclonal antibody. The admixtures were maintained for 1 hour at room temperature to allow for the binding of C4BP to C4BP-antibody-coated plates. The binding of biotinylated complexes to the antibody-coated plates was detected as described in Example 5Aii.

Test [3] has as its target T2, C4BP (Homo sapiens, UniProt P04003+P20851).
T2 sequence (P04003 49-597): T1 sequence (P04003 49-597)
T2 sequence (P20851 18-252): T1 sequence (P20851 18-252)
Particulars: read-out: dissociation constant (Kd) for the protein S - C4BP interaction, cited from earlier work.

For test [4], the target named is T3, interaction of protein S with C4BP (Homo sapiens, UniProt P04003+P20851).
T3 sequence (P04003 49-597): T1 sequence (P04003 49-597)
T3 sequence (P20851 18-252): T1 sequence (P20851 18-252)
Particulars: in vitro; Walker et al., Weinstein et al.; cited from earlier work.

The target of test [5] is T1, PS:C4BP complex. The test is described as follows: Peptide inhibition of b-C4BP binding to PS-coated wells. Particulars: b-C4BP 1 μg/ml, peptide 0-500 μM. As to the method:
An alternative approach was used to test the ability of the peptides, PSP-loop, PSP-424K and PSP-428K, in comparison with that seen with the PSP-12 peptide, in inhibiting the binding of C4BP to PS. For this assay, the microtiter wells were coated with purified PS diluted to a concentration of 10 μg/ml in carbonate-coating buffer as described above. The wells were maintained to allow the PS to bind to the well walls. After the maintenance period, the wells were blocked also as described above. The selected PSP peptides were separately admixed at various concentrations ranging from 0-500 μM with biotinylated-C4BP (b-C4BP) at a concentration of 1 μg/ml. The admixtures were maintained on a fluid phase plate for 2 hours at room temperature to form peptide-C4BP complexes.
Fifty μl of the complexed admixtures were separately admixed to the prepared […] and maintained for 1 hour at room temperature. Thereafter, the plate was washed and processed for developing as described above.

The target in test [6] is T1, PS:C4BP complex. Put plainly: Fluid-phase peptide inhibition of PS binding to b-C4BP, detected on MAb S-7-coated plates. The conditions noted are these: b-C4BP 0.5 μg/ml, PS 1.0 μg/ml. As to the method: as §1, with “monoclonal” for “polyclonal”, “biotinylated-C4BP (b-C4BP), PS” for “C4BP, biotinylated-PS (b-PS)”, “0.5” for “3”, “1.0” for “0.6”, “MAb S-7 (ATCC No. HB 80819).” for “anti-C4BP IgG polyclonal antibody.”, “MAb S-7-antibody-coated” for “C4BP-antibody-coated”

Like-named read-outs stand apart in the source and are kept apart here. Bridge positions count the residues as written; N and C are the ends. Peptide text beside a SMILES is read from it.

Usually IC50 stands for the point on the concentration scale where inhibition reaches its midpoint. A lower IC50 goes with inhibition by little substance. For `CC[C@H](C)[C@@H]1NC(=O)[C@H](CO)NC(=O)[C@H](C)NC(=O)CNC(=O)[C@H](CCC(N)=O)NC(=O)[C@H](CCCCN)NC(=O)[C@H](CCSC)NC(=O)[C@H](CC(C)C)NC(=O)[C@H](CC(N)=O)NC(=O)[C@H](Cc2c[nH]c3ccccc23)NC(=O)[C@H](CO)NC(=O)[C@H](CCCNC(=N)N)NC(=O)[C@H]([C@@H](C)CC)NC(=O)[C@@H](N)CSSC[C@@H](C(N)=O)NC(=O)[C@H](Cc2c[nH]cn2)NC(=O)[C@H](CCCCN)NC(=O)[C@H](CC(N)=O)NC(=O)[C@H](CCC(N)=O)NC(=O)[C@H](CCCCN)NC(=O)[C@H](CCC(=O)O)NC(=O)[C@H](CCC(N)=O)NC(=O)[C@H]([C@@H](C)CC)NC(=O)[C@H]([C@@H](C)CC)NC(=O)[C@H](CCC(=O)O)NC(=O)[C@H](CCCCN)NC1=O` [PSP-loop] (H-CIRSWNLMKQGASIKEIIQEKQNKHC-NH2; disulfide 1-26 (inferred); N-terminus and C-terminus assumed), the “peptide concentration that completely inhibits the binding of PS to C4BP” value in test [1] (subsequent experiments) was “approximately 250 μM”. Also, the IC50 in test [2] (C4BP 3 μg/ml, b-PS 0.6 μg/ml) was about 40 µM.

Regarding CPEGYRYNLKSKSC [PSP-7], the “inhibition of PS:C4BP complex formation relative to PS-peptides from other regions of protein S” value in test [1] is “strong inhibition”.

One may read the Kd as the concentration at which binding is half-saturated. Turning to “Protein S: vitamin K-dependent single chain plasma glycoprotein of 75,000 daltons, cofactor to activated protein C”, the Kd in test [3] (in the presence of Ca++) is 0.0006 µM; in test [3] (in the presence of EDTA) it was 0.001 µM.

Turning to `CC[C@H](C)[C@H](NC(=O)[C@H](C)NC(=O)[C@H](CCC(=O)O)NC(=O)[C@H](CC(=O)O)NC(=O)[C@H](CC(C)C)NC(=O)[C@H](CC(=O)O)NC(=O)[C@H](CC(C)C)NC(=O)[C@H](CCC(N)=O)NC(=O)[C@@H](NC(=O)CN)C(C)C)C(N)=O` [PSP-605, GVQLDLDEAI] (H-GVQLDLDEAI-NH2; N-terminus assumed), in test [4], the “inhibition of the interaction of protein S with C4BP” value was “inhibits the interaction of protein S with C4BP in vitro”.

What is called IC90 is the concentration needed for an effect of 90%. On to `CC[C@H](C)[C@H](NC(=O)CNC(=O)[C@@H](N)CO)C(=O)N[C@@H](CCCCN)C(=O)N[C@@H](CCCCN)C(=O)N[C@H](C(=O)N[C@H](C(=O)N[C@@H](CCC(N)=O)C(=O)N[C@@H](CCC(=O)O)C(=O)N[C@@H](CCCCN)C(=O)N[C@@H](CCC(N)=O)C(=O)N[C@@H](CC(N)=O)C(=O)N[C@@H](CCCCN)C(=O)N[C@@H](CS)C(N)=O)[C@@H](C)CC)[C@@H](C)CC` [PSP-424K, SGIKKIIQEKQNKC] (H-SGIKKIIQEKQNKC-NH2; N-terminus assumed), for which the IC90 in test [5] and in test [6] was about 250 µM throughout. Also, the “inhibition of binding of b-PS to C4BP compared with PSP-loop” value in test [2] is “inhibitory but with lower effectiveness”.

These data come from patent US5321123A, “Protein S polypeptides and anti-peptide antibodies that inhibit protein S binding to C4B binding protein, diagnostic systems and therapeutic methods” (The Scripps Research Institute, priority 1992, dated 1994).
